Earlier results in patent US20060251623A1, “Packaged virus-like particles” (priority 2003, published 2006).

What was measured:
[1] = test system: VLP-induced CTL responses; conditions: TLR ligand alone compared with CpGs; Schwarz et al., (2003) Eur. J. Immunol., 33, 1465-1470
[2] = test system: blood cells; conditions: Kuramoto E. et al., Japanese Journal Cancer Research 83, 1128-1131 (1992)

| Compound | Enhancement of VLP-induced CTL responses [1] | Stimulation of blood cells in vitro [2] |
| --- | --- | --- |
| CC(C)Cn1cnc2c(N)nc3ccccc3c21 [imiquimode] | failed to enhance VLP-induced CTL responses in a way similar to CpGs | – |
| GGGGGGGGGGGACGATCGTCGGGGGGGGGG [SEQ ID NO: 54] | – | able to stimulate blood cells in vitro |
| flagellin | failed to enhance VLP-induced CTL responses in a way similar to CpGs | – |
| polyinosinic-polycytidylic acid [poly (I:C)] | failed to enhance VLP-induced CTL responses in a way similar to CpGs | – |
